Molecules are shown by their SMILES. Structures can show the parent of a compound that is named as a salt. Where two headings read alike, the source gives them in different places.

IC50 data for 25 compounds are collected here from patent US10053431B2, “Tetrahydro-benzodiazepinones” (priority 2013, dated 2018).

For assay [1], the target named is BIR2 domain of XIAP (Homo sapiens (Human), UniProt P98170, C202A/C213G). As to the kind of experiment: TR-FRET assay for BIR2 (inhibition of binding of XIAP BIR2 domain to SMAC-derived Peptide A). In general terms: TR-FRET usually uses a lanthanide donor and a delayed reading to cut background.
Assay [2] concerns the target BIR3 domain of XIAP (Homo sapiens (Human), UniProt P98170). As to the kind of experiment: TR-FRET assay for BIR3 (inhibition of binding of XIAP BIR3 domain to SMAC-derived Peptide A).
Setting [3] is: 6x His-tagged BIR3 domain (aa 241-356 of XIAP) 10 nM, Peptide A 20 nM, TR-FRET.
The mark [4] stands for this setting: 6x His-tagged BIR2 domain (aa 124-240 of XIAP) 10 nM, Peptide A 20 nM, TR-FRET, read-out: IC50 BIR2.

Sequence of BIR3 domain of XIAP (P98170 241-356 with tags or gaps limits assumed): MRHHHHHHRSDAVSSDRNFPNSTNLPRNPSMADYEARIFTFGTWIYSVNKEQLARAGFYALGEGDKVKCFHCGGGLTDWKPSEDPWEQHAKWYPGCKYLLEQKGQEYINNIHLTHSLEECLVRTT
Sequence of BIR2 domain of XIAP (P98170 124-240 with tags or gaps C202A/C213G limits assumed): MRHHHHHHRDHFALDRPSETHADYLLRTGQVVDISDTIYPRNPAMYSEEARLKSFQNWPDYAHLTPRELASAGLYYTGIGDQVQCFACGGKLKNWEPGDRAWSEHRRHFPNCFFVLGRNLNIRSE

For `CC[C@H](N)C(=O)NC1C(=O)N(Cc2c(OC)ccc3c(Br)cccc23)c2ccccc2N(c2ccccc2)C1=O` (stereo partly drawn) [Example 137, (2S)-2-amino-N-(1-((5-bromo-2-methoxynaphthalen-1-yl)methyl)-2,4-dioxo-5-phenyl-2,3,4,5-tetrahydro-1H-benzo[b][1,4]diazepin-3-yl)butanamide], the results for the 50% inhibitory concentration (IC50) in assay [1] (IC50 BIR2) and in assay [2] (setting [3]) were 29.8 nM and > 54800 nM, respectively.

In the case of `CN[C@@H](C)C(=O)N[C@H]1CN(S(=O)(=O)N(C)C)c2ccccc2N(Cc2c(C)ccc3ccccc23)C1=O` [Example 100, (S)—N—[(S)-5-Dimethylsulfamoyl-1-(2-methyl-naphthalen-1-ylmethyl)-2-oxo-2,3,4,5-tetrahydro-1H-benzo[b][1,4]diazepin-3-yl]-2-methylamino-propionamide hydrochloride], the values for the IC50 in assay [1] (setting [4]) and in assay [2] (setting [3]) were 249 nM and > 54800 nM, respectively.

In the case of `CN[C@@H](C)C(=O)N[C@H]1CN(C(=O)C2CCOCC2)c2cc(C#N)ccc2N(Cc2nn(-c3ccccc3C#N)c3ccccc23)C1=O` [Example 170, (S)-N-((S)-7-cyano-1-((1-(2-cyanophenyl)-1H-indazol-3-yl)methyl)-2-oxo-5-(tetrahydro-2H-pyran-4-carbonyl)-2,3,4,5-tetrahydro-1H-benzo[b][1,4]diazepin-3-yl)-2-(methylamino)propanamide hydrochloride], the values for the IC50 in assay [1] (setting [4]) and in assay [2] (setting [3]) were 25.5 nM and > 54800 nM, respectively.

Turning to `CCN[C@@H](C)C(=O)N[C@H]1CN(C(=O)c2ccc(C(C)=O)cc2)c2ccccc2N(Cc2c(OC)ccc3cc(Br)ccc23)C1=O` [Example 80, (S)—N—((S)-5-(4-Acetylbenzoyl)-1-((6-bromo-2-methoxynaphthalen-1-yl)methyl)-2-oxo-2,3,4,5-tetrahydro-1H-benzo[b][1,4]diazepin-3-yl)-2-(ethylamino)propanamide hydrochloride], the values for the IC50 in assay [1] (setting [4]) and in assay [2] were 14 nM and > 54800 nM, respectively.

Consider `CN[C@@H](C)C(=O)N[C@H]1CN(C(=O)CCNC(=O)OCC2c3ccccc3-c3ccccc32)c2ccccc2N(Cc2c(OC)ccc3cc(C(=O)OC)ccc23)C1=O` [Example 13r], for which the IC50 – broadly, the midpoint of a concentration-inhibition curve – in assay [1] (setting [4]) was 17 nM; in assay [2] (setting [3]), 46700 nM.

For `CC(=O)c1ccc(C(=O)N2C[C@H](NC(=O)[C@H](C)N)C(=O)N(Cc3noc4ccccc34)c3ccccc32)cc1` [Example 69k], the IC50 in assay [1] (setting [4]) was 27 nM; in assay [2] (setting [3]) it was > 54800 nM.

On to `CN[C@@H](C)C(=O)N[C@H]1CN(C(=O)CS(C)(=O)=O)c2cc(C#N)ccc2N(Cc2c(OC)ccc3ccccc23)C1=O` [Example 166, (S)-N-((S)-7-cyano-1-((2-methoxynaphthalen-1-yl)methyl)-5-(2-(methylsulfonyl)acetyl)-2-oxo-2,3,4,5-tetrahydro-1H-benzo[b][1,4]diazepin-3-yl)-2-(methylamino)propanamide hydrochloride], for which the results for the IC50 in assay [1] (setting [4]) and in assay [2] (setting [3]) were 20 nM and 43600 nM, respectively.

With `CN[C@@H](C)C(=O)N[C@H]1CN(C(=O)Cc2ccccc2)c2ccccc2N(Cc2cccc3ccccc23)C1=O` [Example 4, (S)-2-Methylamino-N—((S)-1-naphthalen-1-ylmethyl-2-oxo-5-phenylacetyl-2,3,4,5-tetrahydro-1H-benzo[b][1,4]diazepin-3-yl)-propionamide hydrochloride], the figures for the IC50 in assay [1] (setting [4]) and in assay [2] (setting [3]) were 409 nM and > 54000 nM, respectively.

Take `CN[C@@H](C)C(=O)N[C@H]1CN(Cc2ccc(C#N)cc2)c2ccccc2N(Cc2c(OC)ccc3cc(Br)ccc23)C1=O` [Example 78, (S)—N—((S)-1-((6-Bromo-2-methoxynaphthalen-1-yl)methyl)-5-(4-cyanobenzyl)-2-oxo-2,3,4,5-tetrahydro-1H-benzo[b][1,4]diazepin-3-yl)-2-(methylamino)propanamide trifluoroacetate]: the values for the IC50 in assay [1] (setting [4]) and in assay [2] (setting [3]) were 30 nM and 17100 nM, respectively.

As for `CN[C@@H](C)C(=O)N[C@H]1CN(C(=O)c2ccc(C(C)=O)cc2)c2cc(Cl)ccc2N(Cc2c(OC)ccc3c(Br)cccc23)C1=O` [Example 125, (S)-N-((S)-5-(4-acetylbenzoyl)-1-((5-bromo-2-methoxynaphthalen-1-yl)methyl)-7-chloro-2-oxo-2,3,4,5-tetrahydro-1H-benzo[b][1,4]diazepin-3-yl)-2-(methylamino)propanamide hydrochloride], the IC50 in assay [1] (setting [4]) amounted to 7.92 nM; in assay [2] (setting [3]), 25600 nM.

As to `CN[C@@H](C)C(=O)N[C@H]1CN(C(=O)CC2CCOCC2)c2ccccc2N(Cc2c(C)ccc3ccccc23)C1=O` [Example 96c], the values for the half-inhibitory concentration (IC50) in assay [1] (setting [4]) and in assay [2] (setting [3]) were 106 nM and 28100 nM, respectively.

Regarding `CN[C@@H](C)C(=O)N[C@H]1CN(C(=O)c2ccc(C(C)=O)cc2)c2ccccc2N(CCc2cccc3ccccc23)C1=O` [Example 40, (S)—N—((S)-5-(4-acetylbenzoyl)-1-(2-(naphthalen-1-yl)ethyl)-2-oxo-2,3,4,5-tetrahydro-1H-benzo[b][1,4]diazepin-3-yl)-2-(methylamino)propanamide], the results for the IC50 in assay [1] (setting [4]) and in assay [2] (setting [3]) were 173 nM and 7420 nM, respectively.

`CN[C@@H](C)C(=O)N[C@H]1CN2C(=O)CCNC(=O)c3ccc4c(c(OC)ccc4c3)CN(C1=O)c1ccccc12` [Example 63, Cyclic-5-[(S)-5-(3-Amino-propionyl)-3-((S)-2-methylamino-propionylamino)-2-oxo-2,3,4,5-tetrahydro-benzo[b][1,4]diazepin-1-ylmethyl]-6-methoxy-naphthalene-2-carboxylic amide hydrochloride]: the values for the IC50 in assay [1] (setting [4]) and in assay [2] (setting [3]) were 19 nM and 43000 nM, respectively.

With `CN[C@@H](C)C(=O)N[C@H]1CN(C(=O)c2ccc(C(C)=O)cc2)c2ccccc2N(Cc2c(OC)ccc3ccccc23)C1=O` [Example 69g], the IC50 in assay [1] (setting [4]) stood at 11 nM; in assay [2] (setting [3]) it was 42500 nM.

Regarding `CN[C@@H](C)C(=O)N[C@H]1CN(S(=O)(=O)c2ccc(OC)cc2)c2ccccc2N(Cc2c(C)ccc3ccccc23)C1=O` [Example 98f], the results for the half-inhibitory concentration (IC50) in assay [1] (setting [4]) and in assay [2] (setting [3]) were 177 nM and > 50000 nM, respectively.

On to `CN[C@@H](C)C(=O)N[C@H]1CN(C(=O)c2ccc(C(C)(C)O)cc2)c2ccccc2N(Cc2c(OC)ccc3cc(Br)ccc23)C1=O` [Example 95, (S)—N—{(S)-1-(6-Bromo-2-methoxy-naphthalen-1-ylmethyl)-5-[4-(1-hydroxy-1-methyl-ethyl)-benzoyl]-2-oxo-2,3,4,5-tetrahydro-1H-benzo[b][1,4]diazepin-3-yl}-2-methylamino-propionamide trifluoroacetate], for which the half-maximal inhibitory concentration (IC50) in assay [1] (setting [4]) was 7 nM; in assay [2] (setting [3]), 36300 nM.

For `CN[C@@H](C)C(=O)N[C@H]1CN(S(=O)(=O)NC)c2ccccc2N(Cc2c(C)ccc3ccccc23)C1=O` [Example 98b], the IC50 in assay [1] (setting [4]) was 188 nM; in assay [2] (setting [3]), > 54800 nM.

For the compound `CN[C@@H](C)C(=O)N[C@H]1CN(C(=O)c2ccc(N)cc2)c2ccccc2N(Cc2c(OC)ccc3cc(C(=O)O)ccc23)C1=O` [Example 57, 5-(((S)-5-(4-aminobenzoyl)-3-((S)-2-(methylamino)propanamido)-2-oxo-2,3,4,5-tetrahydro-1H-benzo[b][1,4]diazepin-1-yl)methyl)-6-methoxy-2-naphthoic acid hydrochloride], the figures for the IC50 in assay [1] (setting [4]) and in assay [2] (setting [3]) were 7 nM and 20800 nM, respectively.

With `CN[C@@H](C)C(=O)N[C@H]1CN(C(=O)Cc2nnn[nH]2)c2ccccc2N(Cc2c(C)ccc3ccccc23)C1=O` [Example 96b], the 50% inhibitory concentration (IC50) in assay [1] (setting [4]) is 71 nM; in assay [2] (setting [3]) it was 38800 nM.

For the compound `CN[C@@H](C)C(=O)N[C@H]1CN(C(=O)c2ccc(N)cc2)c2cc(Cl)ccc2N(Cc2c(C)ccc3ccccc23)C1=O` [Example 121, (S)-N-((S)-5-(4-aminobenzoyl)-7-chloro-1-((2-methylnaphthalen-1-yl)methyl)-2-oxo-2,3,4,5-tetrahydro-1H-benzo[b][1,4]diazepin-3-yl)-2-(methylamino)propanamide hydrochloride], the IC50 turned out to be 14.8 nM in assay [1] (setting [4]) and 46400 nM in assay [2] (setting [3]).

Consider `CN[C@@H](C)C(=O)N[C@H]1CN(C(=O)c2ccc(C)cc2)c2ccccc2N(Cc2c(OC)ccc3c(Br)cccc23)C1=O` [Example 93, (S)—N—[(S)-1-(5-Bromo-2-methoxy-naphthalen-1-ylmethyl)-5-(4-methyl-benzoyl)-2-oxo-2,3,4,5-tetrahydro-1H-benzo[b][1,4]diazepin-3-yl]-2-methylamino-propionamide hydrochloride], for which the IC50 stood at 18 nM in assay [1] (setting [4]) and 47600 nM in assay [2] (setting [3]).

In the case of `CN[C@@H](C)C(=O)N[C@H]1CN(C(=O)c2ccc(F)cc2)c2ccccc2N(Cc2c(C)ccc3ccccc23)C1=O` [Example 96i], the 50% inhibitory concentration (IC50) in assay [1] (setting [4]) was found to be 30 nM; in assay [2] (setting [3]) it was 48000 nM.

For the compound `CN[C@@H](C)C(=O)N[C@H]1CN(C(=O)c2ccncc2)c2ccccc2N(Cc2c(C)ccc3ccccc23)C1=O` [Example 9, (S)-2-Methylamino-N—[(S)-1-(2-methyl-naphthalen-1-naphthalen-1 ylmethyl)-2-oxo-5-(pyridine-4-carbonyl)-2,3,4,5-tetrahydro-1H-benzo[b][1,4]diazepin-3-yl]-propionamide hydrochloride], the IC50 was 520 nM in assay [1] (setting [4]) and > 54800 nM in assay [2] (setting [3]).

On to `CN[C@@H](C)C(=O)N[C@H]1CN(C(=O)c2ccc(C(=O)O)cc2)c2ccccc2N(Cc2c(C)ccc3ccccc23)C1=O` [Example 97, 4-[(S)-3-((S)-2-Methylamino-propionylamino)-5-(2-methyl-naphthalen-1-ylmethyl)-4-oxo-2,3,4,5-tetrahydro-benzo[b][1,4]diazepine-1-carbonyl]-benzoic acid hydrochloride], for which the IC50 in assay [1] (setting [4]) was 100 nM; in assay [2] (setting [3]), > 54800 nM.

In the case of `CN[C@H](C)C(=O)N[C@H]1CN(C(=O)c2ccc(C(C)=O)cc2)c2ccccc2N(Cc2c(C)ccc3ccccc23)C1=O` [Example 68, (R)—N—((S)-5-(4-acetylbenzoyl)-1-((2-methylnaphthalen-1-yl)methyl)-2-oxo-2,3,4,5-tetrahydro-1H-benzo[b][1,4]diazepin-3-yl)-2-(methylamino)propanamide hydrochloride], the IC50 in assay [2] (setting [3]) is > 54800 nM.
